{
  "source": "patent US20250346643A1",
  "about": "“TROPOMYOSIN KINASE RECEPTOR (TRK) LIGANDS AS THERAPEUTICS TO SUPPORT LIVER REGENERATION” (Vanderbilt University, priority 2024, published 2025)",
  "key": {"CCND1": {"tested_on": "CCND1", "assay": "Western blot of CCND1 in HepG2 cell lysates", "format": "cell-based, human", "settings": "HepG2, Loxo-195 5-10 nM added to NTF3", "protocol": "Human HepG2 and mouse AML12 cells were grown in 6-well plates. Cells were treated with NTF3 (20 ng/ml) purchased from STEMCELL technologies, Vancouver, Canada (cat. 78074), R&D Systems, Minneapolis, MN (267-N3), Gibco, Waltham, MA (PHC7036) and/or Loxo-195 (5-10 nM) (Selleckchem, Houston, TX; S8636) in complete growth media without L-glutamine for 2 hours. Lyophilized NTF3 was solubilized with sterile filtered PBS supplemented with 0.1% BSA, aliquoted and stored at −80° C. until use. […] HepG2 and AML12 cells were collected on ice in PBS, centrifuged for 10 sec […] cell pellet homogenized in RIPA buffer containing inhibitors (Roche, Basel, Switzerland; complete Mini proteinase inhibitor, 1×HALT phosphatase inhibitors, Thermo Scientific, Waltham, MA; cat. 78428). Cell lysates were sonicated and centrifuged for 10 min at 18,800×g. Protein concentration of supernatants were determined by Direct Detect Spectrophotometer (MilliporeSigma, Burlington, MA).\n(§1) For immunoblot analysis, 30-50 μg of protein diluted in LSD sample buffer (Invitrogen, Waltham, MA) were analyzed per SDS-PAGE (NuPAGE™, Invitrogen, Waltham, MA) using MOPS buffer or MES buffer (Invitrogen, Waltham, MA). Gels were stained with Coomassie (Bio-Safe Coomassie G-250 Stain, Bio-Rad, Hercules, CA) and transferred onto PVDF membranes using semi-dry blotting (Trans-Blot SD, Bio-Rad, Hercules, CA). Images were visualized on an Amersham™ Imager 680 (Cytiva, Marlborough, MA). Semi-quantitative band densitometry was performed using ImageJ software (version 1.53)."}, "HepG2 cells": {"tested_on": "HepG2 cells", "assay": "Cell proliferation assay (CellTiter-Glo) in HepG2 cells", "format": "cell-based, human", "settings": "Loxo-195 final concentration 5 nM, HepG2", "protocol": "(§2) Cell lines. Human HepG2 (ATCC HB-8065) were maintained in MEM media with 10% FBS and the mouse hepatocyte cell line AML12 (ATCC, Manassas, VA; CRL-2254) in DMEM/F12 media supplemented with dexamethasone (40 ng/ml) and Insulin-Transferrin-Selenium (Gibco, Waltham, MA; 41400045), containing 10% FBS and 1% penicillin and streptomycin. JS1 (RRID: CVCL_C7PL), LX2 (RRID: CVCL_5792, MilliporeSigma, Burlington, MA; SCC064) and TWNT4 (RRID: CVCL_W296) cells were cultured in DMEM supplemented with 10% FBS. 293T cells (ATCC, Manassas, VA; CRL-3216) were cultured in DMEM supplemented with 10% FBS.\n(§3) Cell proliferation assays. Primary mouse hepatocytes, HepG2 or AML 12 cells were grown in opaque-walled 96-well plates. NTF3 (final concentration 20 ng/ml) (STEMCELL Technologies, Vancouver, Canada; cat. 78074) and/or Loxo-195 (final concentration 5 nM) (Selleckchem, Houston, TX; S8636) were added into complete growth media without L-glutamine. Primary mouse hepatocytes were also grown in serum-free William's E media without supplements. Cells were analyzed by CellTiter-Glo® (Promega G7570, Madison, WI) which detects the number of viable cells on day 0 to day 5 by on detection systems GloMax® (Promega) or Bioteck Synergy H1 (Agilent, Santa Clara, CA). Mouse recombinant HGF (Abcam, Cambridge, UK; ab281797) was added to cell culture media at a final concentration 5 ng/ml. […]"}, "[1]": {"tested_on": "P-TRKA Tyr674/675, P-TRKB Tyr706/707", "assay": "Western blot of phosphorylated TRK in HepG2 cell lysates", "format": "cell-based, human", "settings": "HepG2, Loxo-195 added to NTF3", "protocol": "Human HepG2 and mouse AML12 cells were grown in 6-well plates. […] Lyophilized NTF3 was solubilized with sterile filtered PBS supplemented with 0.1% BSA, aliquoted and stored at −80° C. until use. […] Cell lysates were sonicated and centrifuged for 10 min at 18,800×g. Protein concentration of supernatants were determined by Direct Detect Spectrophotometer (MilliporeSigma, Burlington, MA).\nas §1, with “MA).” for “MA). Semi-quantitative band densitometry was performed using ImageJ software (version 1.53).”"}, "AML12 cells": {"tested_on": "AML12 cells", "assay": "Cell proliferation assay (CellTiter-Glo) in AML12 cells", "format": "cell-based, mouse", "settings": "Loxo-195 final concentration 5 nM, AML12", "protocol": "as §2, §3"}, "proliferating HSCs": {"tested_on": "proliferating HSCs", "settings": "Gfap-Tk mice, carbon tetrachloride and allyl alcohol for 10 days, co-administration of ganciclovir; cited from earlier work"}, "[2]": {"molecular_target": "TRKB (tropomyosin receptor kinase B, encoded by Ntrk2) on primary mouse hepatocytes (mouse) (UniProt P15209)", "sequence (P15209 32-821)": "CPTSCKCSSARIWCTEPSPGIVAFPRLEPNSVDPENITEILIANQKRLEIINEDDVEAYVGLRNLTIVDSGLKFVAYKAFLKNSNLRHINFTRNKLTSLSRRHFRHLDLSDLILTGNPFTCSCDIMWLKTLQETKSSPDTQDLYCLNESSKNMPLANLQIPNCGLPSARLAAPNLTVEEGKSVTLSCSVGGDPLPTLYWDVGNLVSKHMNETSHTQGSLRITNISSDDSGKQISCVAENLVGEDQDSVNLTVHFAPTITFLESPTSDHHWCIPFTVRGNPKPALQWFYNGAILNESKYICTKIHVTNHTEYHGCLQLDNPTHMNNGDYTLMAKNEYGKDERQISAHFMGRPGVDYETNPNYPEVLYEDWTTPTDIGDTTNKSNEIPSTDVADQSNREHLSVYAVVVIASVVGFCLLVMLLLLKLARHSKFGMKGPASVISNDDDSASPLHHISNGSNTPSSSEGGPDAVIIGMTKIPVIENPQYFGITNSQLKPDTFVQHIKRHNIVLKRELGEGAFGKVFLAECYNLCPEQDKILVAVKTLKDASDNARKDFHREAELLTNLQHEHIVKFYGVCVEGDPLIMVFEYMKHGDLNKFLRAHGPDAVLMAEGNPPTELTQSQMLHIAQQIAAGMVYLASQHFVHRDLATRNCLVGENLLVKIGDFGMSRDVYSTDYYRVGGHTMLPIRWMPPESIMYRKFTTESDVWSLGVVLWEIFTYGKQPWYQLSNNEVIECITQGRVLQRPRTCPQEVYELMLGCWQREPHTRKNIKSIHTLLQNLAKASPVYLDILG", "assay": "cell-based or functional assay"}, "CCND1 and PCNA [3]": {"tested_on": "CCND1 and PCNA", "assay": "Immunoblotting of mpPHH for CCND1 and PCNA", "format": "cell-based, human", "settings": "mpPHHs, co-incubation with torin2", "protocol": "(§4) Mouse passaged primary human hepatocytes. Mouse-passaged primary human hepatocytes (mpPHHs) were collected as previously described (Michailidis et al., Proc Natl Acad Sci USA. 2020; 117(3): 1678-1688) and cultured in hepatocyte culture media (CC-3198, Lonza, Basel, Switzerland) in collagen-coated chamber slides. Three days before treatment, mpPHH were incubated in William's E media (with L-glutamine). […] 5-15 images per treatment per experiment were randomly taken and EdU positive nuclei quantified.\n(§5) Immunoblotting. […] Protein concentration of supernatants was determined by Direct Detect Spectrophotometer (MilliporeSigma, Burlington, MA). […] The protein concentration of supernatants was determined by a Direct Detect® spectrophotometer (MilliporeSigma, Burlington, MA). For immunoblot analysis, 10 to 50 μg of protein diluted in […] sample buffer (Invitrogen, Waltham, MA) were analyzed per SDS-polyacrylamide gel electrophoresis (NuPAGE™, Invitrogen, Waltham, MA) using Mops buffer or MES buffer (Invitrogen, Waltham, MA). […] Semi-quantitative band densitometry was performed using ImageJ software (version 1.53)."}, "mTOR": {"tested_on": "mTOR", "assay": "Immunoblotting of mpPHH for P-S6RP and P-P70S6K (mTOR activation)", "format": "cell-based, human", "settings": "co-incubation with Torin2", "protocol": "as §4, §5"}, "CCND1 and PCNA [4]": {"tested_on": "CCND1 and PCNA", "assay": "Immunoblotting of HDOs for CCND1 and PCNA", "format": "cell-based, human", "settings": "co-incubation with torin2", "protocol": "Human ductal organoids. The normal human liver tissue was obtained through the Cooperative Human Tissue Network (CHTN) at Vanderbilt University Medical Center. The liver was cut into very small pieces in liver digestion medium (Gibco, Waltham, MA; 17703-034). The cell suspension was filtered through a 100-μm cell strainer. The flow through was then centrifuged for 2 min at 100 g, 4° C., and the cell pellet resuspended in ice-cold DMEM (Gibco, Waltham, MA; 11885-084, supplemented by 5% FBS) and centrifuged for 2 min at 300 g. The cell pellet was gently resuspended in Matrigel® (Corning, Corning, NY; 356231) and a […] dome plated in a 24-well plate. The plate was incubated for 10-15 min at 37° C. […]\nas §5"}, "mTORC1": {"tested_on": "mTORC1", "assay": "Immunoblotting of HDOs for P-S6RP and P-P70S6K (mTORC1 activation)", "format": "cell-based, human", "protocol": "Human ductal organoids. The normal human liver tissue was obtained through the Cooperative Human Tissue Network (CHTN) at Vanderbilt University Medical Center. The liver was cut into very small pieces in liver digestion medium (Gibco, Waltham, MA; 17703-034). The cell suspension was filtered through a 100-μm cell strainer. The flow through was then centrifuged for 2 min at 100 g, 4° C., and the cell pellet resuspended in ice-cold DMEM (Gibco, Waltham, MA; 11885-084, supplemented by 5% FBS) and centrifuged for 2 min at 300 g. The cell pellet was gently resuspended in Matrigel® (Corning, Corning, NY; 356231) and a […] dome plated in a 24-well plate. The plate was incubated for 10-15 min at 37° C. After solidifying, complete HepatiCult™ Organoid Initiation Medium (OIM) (STEMCELL Technologies, Vancouver, Canada; 100-0384) was added. For passaging, the Matrigel dome was dissociated using TrypLE (Thermo Fisher Scientific, Waltham, MA; 12604013) and incubated at 37° C. for 5 mins. Organoids were washed by resuspending in advanced DMEM/F12 and consecutive resuspension of the organoid pellet. Organoids were resuspended at a 1:10 dilution in Matrigel® and cultured in complete HepatiCult™ Organoid Growth Medium (OGM) (STEMCELL Technologies, Vancouver, Canada; 100-0385) for organoid expansion. For hepatocytic differentiation of hepatic ductal organoids, culture medium was changed to complete HepatiCult™ Organoid Differentiation Medium (ODM) (STEMCELL Technologies, 100-0383) 4 days after passaging. Vehicle, NTF3, BDNF, HGF (20 ng/ml final concentration) or Taletrectinib (Fisher Scientific, Waltham, MA; 502030245, final concentration 10 nM) or torin2 (Fisher Scientific, Waltham, MA; s2817, final concentration 25 nM) were diluted in William's E (without L-glutamine) and added to organoids.\nImmunoblotting. HDOs and mpPHH were homogenized in RIPA buffer containing proteinase inhibitors (Roche, Basel, Switzerland; cOmplete™ Mini protease inhibitor, 2 tab/10 ml buffer) and 1×HALT phosphatase inhibitors (Thermo Fisher Scientific, Waltham, MA; catalog no. 78428). Lysates were sonicated and then centrifuged for 10 min at 18,800 g. Protein concentration of supernatants was determined by Direct Detect Spectrophotometer (MilliporeSigma, Burlington, MA). HDOs were treated with growth factors as described above. Lyophilized NTF3 was solubilized with sterile-filtered PBS supplemented with 0.1% BSA, aliquoted, and stored at −80° C. until use. […] HDOs and mpPHH were collected on ice in PBS and centrifuged for 10 s, and the cell pellet was homogenized in RIPA buffer containing inhibitors (Roche, Basel, Switzerland; cOmplete™ Mini protease inhibitor, 1×HALT phosphatase inhibitors, Thermo Fisher Scientific, Waltham, MA; catalog no. 78428). Cell lysates were sonicated and centrifuged for 10 min at 18,800 g. The protein concentration of supernatants was determined by a Direct Detect® spectrophotometer (MilliporeSigma, Burlington, MA). For immunoblot analysis, 10 to 50 μg of protein diluted in […] sample buffer (Invitrogen, Waltham, MA) were analyzed per SDS-polyacrylamide gel electrophoresis (NuPAGE™, Invitrogen, Waltham, MA) using Mops buffer or MES buffer (Invitrogen, Waltham, MA). […] Semi-quantitative band densitometry was performed using ImageJ software (version 1.53)."}, "[5]": {"settings": "in vivo, cited from earlier work"}, "TrkB [6]": {"molecular_target": "T1, TrkB (Homo sapiens, UniProt Q16620)", "T1 sequence (Q16620 32-822, species assumed)": "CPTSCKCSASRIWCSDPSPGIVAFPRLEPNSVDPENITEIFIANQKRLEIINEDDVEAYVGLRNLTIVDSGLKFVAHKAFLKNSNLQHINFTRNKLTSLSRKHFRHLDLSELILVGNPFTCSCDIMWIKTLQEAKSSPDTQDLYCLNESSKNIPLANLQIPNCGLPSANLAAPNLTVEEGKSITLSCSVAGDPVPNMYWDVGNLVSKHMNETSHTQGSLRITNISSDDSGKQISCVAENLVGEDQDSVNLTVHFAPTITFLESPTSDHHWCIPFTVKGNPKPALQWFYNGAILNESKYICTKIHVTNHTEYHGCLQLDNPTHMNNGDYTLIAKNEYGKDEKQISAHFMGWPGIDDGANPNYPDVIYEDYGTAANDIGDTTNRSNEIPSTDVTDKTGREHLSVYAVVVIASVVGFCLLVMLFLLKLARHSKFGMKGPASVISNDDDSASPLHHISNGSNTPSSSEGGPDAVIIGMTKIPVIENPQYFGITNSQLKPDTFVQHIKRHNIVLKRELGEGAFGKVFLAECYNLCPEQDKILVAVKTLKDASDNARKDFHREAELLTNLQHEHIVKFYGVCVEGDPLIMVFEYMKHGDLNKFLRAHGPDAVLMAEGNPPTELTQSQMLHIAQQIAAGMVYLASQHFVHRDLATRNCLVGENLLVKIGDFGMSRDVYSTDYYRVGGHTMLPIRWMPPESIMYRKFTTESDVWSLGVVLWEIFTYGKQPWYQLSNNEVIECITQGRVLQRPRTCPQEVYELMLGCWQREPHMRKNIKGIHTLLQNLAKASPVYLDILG", "settings": "read-out: Kd (agonist of TrkB); cited from earlier work"}, "TrkB [7]": {"molecular_target": "T1, TrkB", "settings": "read-out: IC50 for inhibition of BDNF binding to TrkB; cited from earlier work"}, "TrkB [8]": {"molecular_target": "T1, TrkB", "settings": "cited from earlier work"}},
  "data": [
    {"molecule": "C[C@@H]1CCc2ncc(F)cc2[C@H]2CCCN2c2ccn3ncc(c3n2)C(=O)N1", "note": "[Loxo-195, reference compound]", "values": [
      {"measurement": "effect on NTF3-induced CCND1 abundance", "setting": "CCND1", "value": "inhibited"},
      {"measurement": "inhibition of NTF3-induced proliferation", "setting": "HepG2 cells", "value": "significantly inhibited proliferation"},
      {"measurement": "effect on NTF3-induced TRK phosphorylation", "setting": "[1]", "value": "decreased"},
      {"measurement": "inhibition of NTF3-induced proliferation", "setting": "AML12 cells", "value": "significantly inhibited proliferation"}
    ]},
    {"molecule": "Nc1nc(O)c2ncn(COC(CO)CO)c2n1", "note": "[ganciclovir]", "values": [
      {"measurement": "depletion rate of proliferating HSCs", "setting": "proliferating HSCs", "value": "approximately 65%"}
    ]},
    {"molecule": "recombinant neurotrophin-3 (NTF3) (from UniProt P20783 139-257) (ligand)", "values": [
      {"measurement": "proliferation of primary mouse hepatocytes (CellTiter-Glo), NTF3 20 ng/ml against vehicle", "setting": "[2]", "value": 1.5, "unit": "fold"}
    ]},
    {"molecule": "Nc1ccc(-c2ccc3ncc4ccc(=O)n(-c5cccc(C(F)(F)F)c5)c4c3c2)cn1", "note": "[Torin2, reference compound]", "values": [
      {"measurement": "effect on NTF3-induced CCND1 and PCNA", "setting": "CCND1 and PCNA [3]", "value": "inhibited"},
      {"measurement": "effect on NTF3-induced P-S6RP and P-P70S6K", "setting": "mTOR", "value": "inhibited"},
      {"measurement": "effect on NTF3-induced CCND1 and PCNA", "setting": "CCND1 and PCNA [4]", "value": "inhibited"},
      {"measurement": "effect on NTF3- or insulin-induced phosphorylation of p70S6 kinase and S6RP", "setting": "mTORC1; HDO, co-incubation with Torin2 25 nM", "value": "decreased"},
      {"measurement": "phosphorylated S6rp (Ser240/244)", "setting": "mTORC1; HDOs cultured in glutamine free media, coincubation (FIG. 18G), Torin2 25 nM", "value": "decreased phosphorylated S6rp"}
    ]},
    {"molecule": "O=c1cc(-c2ccccc2)oc2c(O)c(O)ccc12", "note": "[7,8-DHF, 7,8-dihydroxyflavone]", "values": [
      {"measurement": "oral bioavailability", "setting": "[5]; po", "value": "orally bioavailable"},
      {"measurement": "blood-brain barrier penetration", "setting": "[5]", "value": "able to penetrate the blood-brain barrier"},
      {"measurement": "Kd", "setting": "TrkB [6]", "value": "~320", "unit": "nM"}
    ]},
    {"molecule": "O=C(NCCO)c1cc(C(=O)NCCO)cc(C(=O)NCCO)c1", "note": "[LM22A-4]", "values": [
      {"measurement": "IC50", "setting": "TrkB [7]", "value": 47, "unit": "nM"},
      {"measurement": "intrinsic activity (IA)", "setting": "TrkB [8]; partial agonist of TrkB", "value": "about 85%"},
      {"measurement": "EC50", "setting": "TrkB [8]; read-out: EC50 for TrkB activation", "value": "0.2 to 0.5", "unit": "nM"}
    ]}
  ]
}
